Experimental data as given in patent US6534495B1, “Serine protease inhibitors” (Akzo Nebel, priority 1997, dated 2003).

Legend:
Type in all cases: biochemical
[1] = target: T1, Human thrombin (Homo sapiens, UniProt P00734); assay: Anti-thrombin assay (hydrolysis of chromogenic substrate S-2238); conditions: S-2238, TNP buffer, 37° C., read-out: IC50, antithrombin activity
T1 construct: purchased Centraal Laboratorium voor Bloedtransfusie, Amsterdam, The Netherlands
Description: Thrombin (Factor […]) is a factor in the coagulation cascade.
The anti-thrombin activity of compounds of the present invention was assessed by measuring spectrophotometrically the rate of hydrolysis of the chromogenic substrate s-2238 exterted by thrombin. This assay for anti-thrombin activity in a buffer system was used to assess the IC50-value of a test compound.
Test medium: Tromethamine-NaCl-polyethylene glycol 6000 (TNP) buffer
Reference compound: 12581 (Kabi)
Solubilisation can be assisted with dimethylsulfoxide, methanol, ethanol, acetonitrile or tert.-butyl alcohol which are without adverse effects in concentrations up to 2.5% in the final reaction mixture.
1. Tromethamine-NaCl (TN) buffer
Composition of the buffer:
The pH of the solution is adjusted to 7.4 at 37° C. with HCl (10 mmol.l^−1).
Polyethylene glycol 6000 is dissolved in TN buffer to give a concentration of 3 g.l^−1.
One vial S-2238 (25 mg; Kabi Diagnostica, Sweden) is dissolved in 20 ml TN buffer to give a concentration of 1.25 mg.ml^−1 (2 mmol.l^−1).
Human thrombin (16 000 nKat.vial^−1; Centraal Laboratorium voor Bloedtransfusie, Amsterdam, The Netherlands) is dissolved in TNP buffer to give a stock solution of 835 nKat.ml^−1.
Immediately before use this solution is diluted with TNP buffer to give a concentration of 3.34 nKat.ml^−1.
All ingredients used are of analytical grade
For aqueous solutions ultrapure water (Milli-Q quality) is used.
Preparation of Test and Reference Compound Solutions
The test and reference compounds are dissolved in Milli-Q water to give stock concentrations of 10^−2 mol.l^−1. Each concentration is stepwise diluted with the vehicle to give concentrations of […], 10^−4 and 10^−5 mol.l^−1. The dilutions, including the stock solution, are used in the assay (final concentrations in the reaction mixture: 3·10^−3; 10^−3; 3·10^−4; 10^−4; 3·10^−5; 10^−5, 3·10^−6 and 10^−6 mol.l^−1, respectively).
At room temperature 0.075 ml and 0.025 ml test compound or reference compound solutions or vehicle are alternately pipetted into the wells of a microtiter plate and these solutions are diluted with 0.115 ml and 0.0165 ml TNP buffer, respectively. […] Starting after 1 min of incubation, the absorbance of each sample at 405 nm is measured every 2 min. for a period of 90 min. using a kinetic microtiter plate reader (Twinreader plus, Flow Laboratories).
All data are collected in an IBM personal computer using LOTUS-MEASURE. For each compound concentration (expressed in mol.l^−1 reaction mixture) and for the blank the absorbance is plotted versus the reaction time in min.
Evaluation of responses: For each final concentration the maximum absorbance was calculated from the assay plot. […]

[2] = target: T2, recombinant human factor VIIa / recombinant human Tissue Factor complex (Homo sapiens, UniProt P08709); assay: Anti factor VIIa/tissue factor assay (amidolysis of Pefachrome VIIa); conditions: for percentage inhibition, anti factor VIIa/tissue factor activity: single point, at a concentration of 1×10^−5 M
T2 construct: purchased American Diagnostica Inc, Greenwich, Conn
T2 sequence (P08709 213-466 limits assumed): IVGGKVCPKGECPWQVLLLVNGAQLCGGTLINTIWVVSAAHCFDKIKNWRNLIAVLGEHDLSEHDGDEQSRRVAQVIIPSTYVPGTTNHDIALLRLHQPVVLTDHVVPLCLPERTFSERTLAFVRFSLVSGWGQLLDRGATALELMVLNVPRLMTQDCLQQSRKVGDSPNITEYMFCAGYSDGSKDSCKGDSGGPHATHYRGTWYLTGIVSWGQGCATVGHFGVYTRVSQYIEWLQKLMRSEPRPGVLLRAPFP
T2 sequence (P08709 61-212 limits assumed): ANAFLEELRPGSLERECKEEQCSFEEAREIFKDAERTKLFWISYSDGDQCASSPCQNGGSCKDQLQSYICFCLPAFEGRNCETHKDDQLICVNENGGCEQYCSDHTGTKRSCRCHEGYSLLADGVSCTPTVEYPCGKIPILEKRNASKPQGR
T2 sequence (P13726 33-295 partner): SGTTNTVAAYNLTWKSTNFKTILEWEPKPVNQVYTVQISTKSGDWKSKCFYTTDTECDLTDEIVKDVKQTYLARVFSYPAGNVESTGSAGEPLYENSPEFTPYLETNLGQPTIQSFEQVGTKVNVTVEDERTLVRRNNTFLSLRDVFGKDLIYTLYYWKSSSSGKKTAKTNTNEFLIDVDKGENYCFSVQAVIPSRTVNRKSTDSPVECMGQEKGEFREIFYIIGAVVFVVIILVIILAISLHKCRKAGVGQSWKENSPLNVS
Source text: III. Anti Factor VIIa/Tissue Factor Assay
Vascular damage initiates a series of enzyme generation reactions ultimately leading to the formation of a fibrin gel at the site of the injury. The primary enzyme generation reaction is the generation of activated factor VII (VIIa) from proenzyme factor VII. This activation reaction takes place by an as yet unknown mechanism. […] The activated Factor VII then also binds to membrane-bound TF and this […] tenase complex next converts Factor X into Factor Xa.
Thrombosis develops when there is insufficient control of the coagulation reaction. One way to restore this control is by inhibiting essential coagulation enzymes such as for instance the complex of membrane-bound TF and Factor VIIa. […] A method is described by which the inhibitory potency of compounds towards VIIa/TF complex can be established. Test compounds are mixed at various concentrations with factor VIIa and TF and with a chromogenic substrate, which is known to be split far better by TF-bound VIIa than by free VIIa. The amidolytic reaction taking place is continuously monitored in a microtiter plate reader. Inhibitory potency of the compounds investigated is expressed by the IC50, defined as the concentration of compounds yielding 50% inhibition of the amidolytic reaction, ninety minutes after the start of the reaction.
A ten times concentrated Hepes buffer made by dissolving 29.40 g CaCl2.2H2O, 47.66 g Hepes, 87.66 g NaCl and 30.00 g polyethyleneglycol (PEG) MW=6000 in 1000 ml aqua bidest. After the solution has been heated to 37° C., the pH of the buffer is set on 7.40 with help of 10 molar NaOH. The concentrated buffer solution is stored at 4° C. and is stable for at least two months at this condition. Prior to use the buffer is diluted in aqua bidest. 1 to 8 to obtain a final concentration in the wells (See test procedure) of 20 mM CaCl2, 20 mM Hepes, 150 mM NaCl and 0.3% PEG6000. If compounds are dissolved and diluted in aqua bidest. or another vehicle because of an insufficient solubility the Hepes buffer can be diluted 1 to 6 to preserve the same ionic strength in the test.
Recombinant Human Factor VIIa
Recombinant human factor VIIa is obtained from American Diagnostica Inc, Greenwich, Conn. Each vial contains 1.2 mg recombinant human factor VIIa, which is lyophilized from 2 ml buffer composed of 10 mM glycylglycine, 50 mM NaCl, 10 mM CaCl2, 30 mg/ml mannitol, 0.1% Tween, pH 5.5. The contents of each of these vials is reconstituted with 2 ml aqua bidest. as indicated by the manufacturer. The 2 ml 1.2*10^−5 stock solution thus obtained is divided in smaller fractions, which are stored at −30° C. At this condition these VIIa samples are stable for at least 6 months.
Recombinant Human Tissue Factor
Recombinant human Tissue Factor is obtained from American Diagnostica Inc, Greenwich, Conn. Each vial contains 25 μg recombinant human Tissue Factor (non-lipidated, MW 35000 Dalton), which is lyophilized from 1 ml Tris/HCl buffer (pH 8.0) composed of 150 mM NaCl, 200 mM mannitol and 10 mM CHAPS (Steroid derivative used to solubilize membrane proteins; see Merck Index). The contents of each vial is reconstituted with 1 ml aqua bidest. as indicated by the manufacturer. The 1 ml 7.14×10^−7 M stock solution thus obtained is divided in smaller fractions, which are stored at −30° C. Thus stored these VIIa samples are stable for at least 67 months. […]

[3] = target: T3, Bovine Factor Xa Human (Bos taurus, UniProt P00743); assay: Anti-factor Xa assay (hydrolysis of chromogenic substrate S-2222); conditions: S-2222, TNP buffer, 37° C.
T3 construct: purchased Kabi Diagnostica
T3 sequence (P00743 234-492 limits assumed): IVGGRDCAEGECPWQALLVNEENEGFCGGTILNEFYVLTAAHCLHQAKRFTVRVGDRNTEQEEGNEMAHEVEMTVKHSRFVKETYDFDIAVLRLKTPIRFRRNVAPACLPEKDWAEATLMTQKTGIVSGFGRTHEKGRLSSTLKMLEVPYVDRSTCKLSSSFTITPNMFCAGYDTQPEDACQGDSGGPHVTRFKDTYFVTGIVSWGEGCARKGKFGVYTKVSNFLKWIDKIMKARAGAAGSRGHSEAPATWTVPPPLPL
T3 sequence (P00743 41-180 limits assumed): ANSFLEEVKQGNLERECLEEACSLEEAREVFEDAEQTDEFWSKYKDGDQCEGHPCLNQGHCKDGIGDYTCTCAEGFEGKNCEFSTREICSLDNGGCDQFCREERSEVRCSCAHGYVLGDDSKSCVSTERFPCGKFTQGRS
Description: Activated Factor X (Xa) is a factor in the coagulation cascade. The anti-Xa activity of compounds of the present invention was assessed by measuring spectrophotometrically the rate of hydrolysis of the chromogenic substrate s-2222 exterted by Xa. This assay for anti-Xa activity in a buffer system was used to assess the IC50-value of the test compound.
In general the followed procedure and test conditions were analogous to those of the anti-thrombin assay as described above. Differences are indicated below.
Reference compound: benzamidine
Solubilisation can be assisted with dimethylsulfoxide, methanol, ethanol, acetonitrile or tert.-butyl alcohol which are without adverse effects in concentrations up to 1% (for DMSO) and 2.5% (for the other solvents) in the final reaction mixture.
One vial S-2222 (15 mg; Kabi Diagnostica, Sweden) is dissolved in 10 ml water to give a concentration of 1.5 mg.ml^−1 (2 mmol.l^−1).
Bovine Factor Xa Human (71 nKat.vial^−1, Kabi Diagnostica) is dissolved in 10 ml TNP buffer and then further diluted with 30 ml TNP buffer to give a concentration of 1.77 nKat.ml^−1. The dilution has to be freshly prepared.
Instead of the S-2238 solution (in anti-thrombin assay), the above S-2222 solution is added to each well in this assay.

SMILES | IC50 [1] | percentage inhibition, anti factor VIIa/tissue factor activity [2] | other results
NCCCCC(NC(=O)CN1CCCCC(NS(=O)(=O)Cc2ccccc2)C1=O)C(=O)C(N)=O (stereo not drawn) [Example 4, BzlSO2-norLeu(cyclo)-Gly-LysΨ[COCO]—NH2] | 90 nM | – | –
CCS(=O)(=O)N[C@@H](CC(N)=O)C(=O)N[C@@H](CC(C)C)C(=O)N[C@@H](CCCCN)C(=O)C(=O)OC(C)C [EtSO2-Asn-Leu-LysΨ[COCO]-O-iPropyl] | – | 56% | –
CCS(=O)(=O)N[C@H](Cc1ccccc1)C(=O)N[C@@H](CC(C)C)C(=O)N[C@@H](CCCCN)C(=O)C(=O)OC(C)C [EtSO2-D-Phe-Leu-LysΨ[COCO]-O-iPropyl] | – | 98% | –
CC(C)OC(=O)C(=O)C(CCCCN)NC(=O)C1CCCN1C(=O)C(NS(=O)(=O)Cc1ccccc1)C(c1ccccc1)c1ccccc1 [Example 40, BzlSO2-D-Dpa-Pro-LysΨ[COCO]—O-iPropyl] | 20 nM | – | –
CCOC(=O)C(=O)C(CCCCN)NC(=O)C1CCCN1C(=O)C(CC1CCCCC1)NS(=O)(=O)CC [Example 5, EthylSO2-D-Cha-Pro-LysTr[COCO]-OEt] | – | – | IC50 [3]: 280 nM
CCS(=O)(=O)N1Cc2ccccc2C[C@@H]1C(=O)N[C@@H](Cc1ccccc1)C(=O)N[C@@H](CCCCN)C(=O)C(=O)OC(C)C [EtSO2-D-3-Tiq-Phe-LysΨ[COCO]-O-iPropyl] | – | 91% | –
CC(C)OC(=O)C(=O)C(CCCCN)NC(=O)C1CCCN1C(=O)C(CC1CCCCC1)NS(=O)(=O)CC12CCC(CC1=O)C2(C)C [Example 24, (10-Camphor)SO2-D-Cha-Pro-LysΨ[COCO]—O-iPropyl] | 10 nM | – | –
CC(C)OC(=O)C(=O)C(CCCCN)NC(=O)C1CCCN1C(=O)C(CC1CCCCC1)NS(=O)(=O)Cc1ccccc1 [Example 28, BenzylSO2-D-Cha-Pro-LysΨ[COCO]—O-iPropyl] | – | – | IC50 [3]: 20 nM
NC(N)=NCCC[C@H](NC(=O)[C@@H]1CCCN1C(=O)[C@H](N)Cc1ccccc1)C(=O)CCl [Org 34593, reference compound] | – | – | IC50 ([2]; reference compound, 50% inhibition of the amidolytic reaction at 90 min): 300 nM
CCS(=O)(=O)N[C@H](CC(C)C)C(=O)N[C@@H](CCC(N)=O)C(=O)N[C@@H](CCCCN)C(=O)C(=O)OC(C)C [EtSO2-D-Leu-Gln-LysΨ[COCO]-O-iPropyl] | – | 94% | –
CCS(=O)(=O)NC(Cc1ccc(OC)cc1)C(=O)N1CCCC1C(=O)NC(CCCCN)C(=O)C(=O)N1CCC1 [Example 38, EtSO2-D-Tyr(Me)-Pro -LysΨ[COCO]-Azetidine] | 110 nM | – | –
NCCCCC(NC(=O)CN1CCCCC(NS(=O)(=O)Cc2ccccc2)C1=O)C(=O)C(=O)NCc1ccccc1 (stereo not drawn) [Example 1, BzlSO2-norLeu(cyclo)-Gly-LysΨ[COCO]-NHBzl] | – | – | IC50 [3]: 640 nM
